Series [1] deals with LPNs. In words: Gel filtration analysis of LPNs after peptide addition (nanodisc integrity, particle size). It counts as physicochemical. As to conditions: for nanodisc disruption: 1 mM EDTA, pH 7.4, 280 nm. The procedure: was carried out on a Superdex-200 resin using a Tricorn 5/200 column (GE Healthcare, Sweden) in buffer (10 mM Tris-HCl, 0.1 M NaCl, 1 mM EDTA, 1 mM NaN3, pH 7.4). Thyroglobulin (669 kDa, Stokes radius RH = 8.5 nm), ferritin (440 kDa, RH = 6.1 nm), catalase (232 kDa, RH = 5.22 nm), aldolase (158 kDa, RH = 4.81 nm) BSA (67 kDa, RH = 3.55 nm), and ovalbumin (43 kDa, RH = 3.05 nm) were used as calibration proteins. The flow rate through the column was 0.3 ml/min. Detection was performed at 280 nm. The particle size was determined from the elution volume vs the lgRH calibration curve. All the particle size (diameter) values provided below correspond to twice RH values. ;

Series [2] has as its system MSP (44-243 fragment of human apolipoprotein A1). In words: NMR titration binding isotherm with MSP. The procedure: (§1) The recombinant 44–243 fragment of the human apolipoprotein A1 with a N-terminal sequence of six His residues was used as an MSP protein. The purified MSP protein, obtained as described in [20], was mixed at a molar ratio of 1 : 75 with lipids in the presence of a detergent, sodium cholate (2 : 1 cholate/lipids molar ratio), and the mixture was incubated at 4 °C for 3 h. When using saturated lipids (DLPC, DLPG), the reaction temperature was kept not lower than 25 °C. Spontaneous LPN assembly was initiated by detergent sorption to the Bio-Beads™ resin (Bio-Rad, USA) for 1.5 h. Purification of the nanodiscs was performed on a Ni^2+ Sepharose 6 Fast Flow resin (GE Healthcare, USA) equilibrated with buffer A (20 mM Tris-HCl, 0.5 M NaCl, 1 mM NaN3, pH 8.0). After loading the reaction mixture, the resin was washed with a fivefold volume of buffer A. LPNs were eluted with buffer A containing 100 mM imidazole. The MSP concentration was determined spectrophotometrically by absorbance at λ = 280 nm. The LPN concentration was determined by assuming that each nanodisc contained two MSP molecules.
(§2) NMR spectra were acquired at 40–45 °C on AVANCE -700 and AVANCE -III-800 spectrometers (Bruker, Germany) equipped with cryogenically cooled triple-resonance probes at the proton resonance frequencies of 700 and 800 MHz, respectively.
(§3) To measure the isotherms of the toxins binding to LPNs and MSP molecules, the VSTx1 and NT II samples ([…], 10 mM Tris-Ac, pH 7.0) were titrated with solutions of nanodiscs (70 μM) of various lipid compositions or with a MSP solution (0.7 mM). The 1D 1H-NMR spectrum was acquired at each point. A data analysis was performed assuming that the intensity of the observed NMR signals of a peptide is proportional to its equilibrium concentration in solution ([P]free). The binding curves were fitted either to the partition equilibrium equation (1) or to the Langmuir isotherm equation (2), taking into account the dilution of the initial samples upon titration:
(§4) where [LPN/lipid] is the LPN concentration (assuming that one nanodisc contains two MSP molecules) or the lipid concentration (assuming that one nanodisc contains 150 lipid molecules), [P]boundis the concentration of a peptide bound to LPN ([P]0 = [P]free+ [P]bound), Kpis the partition coefficient, n is the number of binding sites for a peptide on the nanodisc surface, and Knis the affinity constant of the peptide to the binding site on the nanodisc surface.

Another series deals with LPN/POPC/DOPG (3 : 1). Put plainly: NMR titration binding isotherm with LPN/POPC/DOPG (3 : 1) nanodiscs. The procedure:
as §1, §2, §3, §4

The conditions of series [3]: ref [31]; cited from earlier work. From the text:
(§5) The VSTx1 toxin is a small β-structured peptide stabilized by three disulfide bonds which form a “cysteine knot” (Fig. 1). […] According to current data, VSTx1 inhibits the voltage-dependent activation of K^+ channels and uses “membrane catalysis” mechanisms when forming a complex with the voltage-sensing domain of the channel.

A further series relates to K^+ channels. As to conditions: ref [3]; cited from earlier work.
Text: as §5

Another series relates to LPN/POPC. Put plainly: NMR titration binding isotherm with LPN/POPC nanodiscs. The procedure: as §1, §2, §3, §4
The subject of series [4] is nanodisc surface or MSP molecule. Put plainly: Langmuir analysis of VSTx1 binding to sites on nanodisc surface or MSP. To be noted: Langmuir isotherm (eq. 2); range over LPN/POPC, LPN/POPC/DOPG and MSP. On the procedure:
as §3, §4

The conditions of series [5]: buffer containing 150 mM KCl; ref [3]; cited from earlier work. From the text: These differences in the toxin affinity may b ...
The conditions of series [6]: ref [12], [15], [20]; cited from earlier work. From the text:
(§6) Given that the mechanisms associated with the change in the local curvature of the lipid bilayer (“toroidal” pore formation, bilayer micellization) underlie the action of the overwhelming majority of water- soluble cationic AMPs, we can assume that many of these molecules will have a destructive effect on LPNs. Thus, nanodiscs are probably not suited as a medium for studying these peptides. It should be noted that there are other classes of channel- and pore-forming biomolecules that can be studied in LPN-based media.

Series [7] relates to LPNs. As to conditions: ref [12], [15], [20]; cited from earlier work.
Text: as §6

The conditions of series [8]: CD spectroscopy; ref [18], [21]; cited from earlier work.
The conditions of series [9]: CD spectroscopy; ref [18], [21]; cited from earlier work. The source holds these as a separate data set.
A short description of series [10]: Mean Kyte-Doolittle hydrophobicity index. As to conditions: among the three studied peptides. From the text:
The problems related to the application of LPNbased membrane mimetic media in structural and biophysical studies of water-soluble MPs have yet to be studied. It should be noted that this is far from being a trivial matter, since LPNs, unlike vesicles, bicelles, and micelles, contain an additional component, MSP, which is an anionic protein (charge of –6). In this paper, the interaction of water-soluble MPs with LPNs was studied using three model cationic β-structured peptides (Fig. 1), which have different physicochemical properties and represent three classes of membrane-active compounds. The antimicrobial peptide arenicin-2 (Ar2, 21 AA, 2772 Da, charge of +6, mean Kyte-Doolittle hydrophobicity index is –0.06, The maximum and minimum values of the Kyte-Doolittle hydrophobicity index are +4.5 and –4.5 for poly-Ile and poly-Arg sequences, respectively.) from coelomocytes of the polychaete lugworm Arenicola marina interacts selectively with membranes containing negatively charged lipid molecules and forms oligomeric pores in them. The VSTx1 toxin (34 AA, 4010 Da, charge of +3, hydrophobicity index is –0.27) from Grammostola spatulata spider venom uses the “membrane catalysis” mechanism to interact with the voltage-sensitive domains of K+-channels localized in the cell membrane, and it lacks pore-forming ability. […]

The test system of series [11] is LPNs. In words: Opalescence/opacity of LPN solutions on Ar2 addition. It counts as physicochemical. On the procedure: During that study, an aqueous Ar2 solution was added to nanodisc samples. […] An analysis of the sample supernatants by gel filtration confirmed this assumption. […] A similar process is known as high-density lipoprotein remodeling, which can occur both in vitro and in vivo upon the interaction of lipoprotein particles with lipophilic plasma proteins. Previously, nanodisc fusion had been observed in cell-free protein biosynthesis systems with the cotranslational incorporation of membrane proteins into LPNs containing unsaturated lipids. The spontaneous LPN fusion in vitro proceeds very slowly, but it could be considerably accelerated under denaturing conditions.

For series [12] the following is noted: cited from earlier work. From the text: The cationic AMP, Ar2, contains mainly positively charged and hydrophobic residues and has a β-hairpin structure in water, which is stabilized with one disulfide bond (Fig. 1). […] As expected, the β-hairpins of individual peptides within the pore have a transmembrane orientation, so that the ...
Where [13] appears, read: Superdex-200, 10 mM Tris-HCl, 0.1 M NaCl.
[14] abbreviates: Langmuir isotherm (eq. 2), 10 mM Tris-Ac, pH 7.0, 40–45 °C.
Where [15] appears, read: maximum ("up to"), Langmuir isotherm.
Setting [16] is: partition equilibrium (eq. 1), lipid concentration as non-aqueous phase (150 lipids per nanodisc), 10 mM Tris-Ac, pH 7.0, 40–45 °C, no added salt.

“Also recorded” adds a separate entry of the source. Where no end group is shown, it is not given here.

Regarding “VSTx1 (GSECGKFMWKCKNSNDCCKDLVCSSRWKWCVLASPF; not fully specified; ends and bridges not checked)”, the nanodisc disruption result in the series with LPNs [1] (setting [13]) is reported as “does not cause their disruption; also recorded: no nanodisc disruption”. Besides, the “diameter of unbound toxin” value in the series on LPNs [1] (Superdex-200, 10 mM Tris-HCl, 0.1 M NaCl, pH 7.4, diameter = 2 RH) is ~ 2.0 nm. Moreover, in series [2] (MSP without lipids, 1D 1H-NMR titration, 10 mM Tris-Ac, pH 7.0), the “interaction with MSP” value is recorded as “weakly interacts; also recorded: weak interaction”. In addition, the “Kn, affinity constant of the peptide to the binding site” value in series [2] (MSP×2, no lipids, Langmuir isotherm (eq. 2), 10 mM Tris-Ac, pH 7.0, 40–45 °C) was 0.05 ± 0.02 ×10^6·M^-1. For the same substance, the “Kp(LPN, MSP×2), partition coefficient” value in series [2] (MSP×2, no lipids, partition equilibrium (eq. 1), titration with 0.7 mM MSP, 10 mM Tris-Ac, pH 7.0, 40–45 °C) is on record as 0.10 ± 0.01 ×10^6·M^-1; with LPN/POPC/DOPG (3 : 1) (partition equilibrium (eq. 1), LPN concentration as non-aqueous phase, 10 mM Tris-Ac, pH 7.0, 40–45 °C, no added salt), 2.68 ± 0.24 ×10^6·M^-1; in the series with LPN/POPC (partition equilibrium (eq. 1), LPN concentration as non-aqueous phase, 1D 1H-NMR titration, 10 mM Tris-Ac, pH 7.0, 40–45 °C, no added salt), 0.39 ± 0.02 ×10^6·M^-1. Also, in [2] (in the absence of lipids, each MSP molecule), the “VSTx1 molecules bound per MSP molecule” value is “up to 1.6 VSTx1 molecules”. In addition, the results for the “Kn, affinity constant of the peptide to the binding site on the LPN surface” value in the series with LPN/POPC/DOPG (3 : 1) (setting [14]) and in the series on LPN/POPC (setting [14]) were 0.13 ± 0.02 ×10^6·M^-1 and 0.06 ± 0.01 ×10^6·M^-1, respectively. Also, the “n, number of binding sites on the LPN surface” value in the series with LPN/POPC/DOPG (3 : 1) (setting [14]) turned out to be 34.5 ± 3.9; in the series on LPN/POPC (setting [14]), 9.6 ± 1.5. In addition, the “binding to LPNs” value in the series with LPN/POPC/DOPG (3 : 1) (POPC/DOPG, 3 : 1, 1D 1H-NMR titration, 10 mM Tris-Ac, pH 7.0) is “effectively binds; also recorded: interacts effectively with LPNs containing anionic lipids”; in the series with LPN/POPC (POPC, 1D 1H-NMR titration, 10 mM Tris-Ac, pH 7.0) it was “lower affinity; also recorded: interacts less efficiently”. Further, in the series with LPN/POPC/DOPG (3 : 1) (at ~ 35 binding sites per nanodisc), the “lipid molecules per toxin molecule” value was ~ 4 lipid molecules per toxin molecule. Besides, the “number of binding sites with negatively charged lipids added” value in the series on LPN/POPC/DOPG (3 : 1) (setting [15]) is ~ 35. For the same substance, the “Kp(Lipids), partition coefficient” value is recorded as 17.8 ± 1.6 ×10^3·M^-1 in the series on LPN/POPC/DOPG (3 : 1) (setting [16]) and 2.6 ± 0.2 ×10^3·M^-1 with LPN/POPC (setting [16]). Moreover, in series [3], the “affinity for interface of phospholipid membranes containing anionic lipids” value was “considerable affinity”. Also, in series [3], the “interaction with zwitterionic lipid membranes” value is given as “weakly interacts”. Also, in series [3], the membrane lytic activity entry is listed as “no membrane lytic activity”. Also, the “voltage-dependent activation of K^+ channels” value in the series on K^+ channels is “inhibits”. Also, the “toxin molecules bound per nanodisc containing POPC (~ 150 molecules)” value in the series on LPN/POPC (setting [15]) is listed as ~ 10 toxin molecules. The “Kn, affinity to the sites on the nanodisc surface or on a MSP molecule” value in series [4] is 50000 to 130000 M⁻¹. In addition, the “Kp, partition coefficient, vesicles of POPE/POPG (3 : 1)” value in [5] is on record as ~ 2 × 10^3 × 10^3 M^-1.

Regarding antiamoebin I, the “upper limit of solubility in water” value in series [6] was 30 µM. Also, the “complex formation with LPNs” value in the series on LPNs [7] was “formation of stable complexes”.

With “arenicin-2 (RWCVYAYVRIRGVLVRYRRCW; not fully specified; ends and bridges not checked; UniProt Q5SC59 182-202, looked up) [Ar2, antimicrobial peptide (21 AA) from coelomocytes of the polychaete lugworm Arenicola marina]”, in series [8], the “binding to DOPG liposomes” value was “binds with high affinity”. The “size of large complexes” value with LPNs [1] (Ar2/LPN sample supernatants, Superdex-200, pH 7.4, diameter = 2 RH) is on record as ~ 15 nm. Moreover, the nanodisc disruption entry is reported as “causes nanodisc fusion, accompanied by the release of MSP molecules” in the series with LPNs [1] (setting [13]) and “disintegrates LPNs” in the series with LPNs [1] (Superdex-200, 10 mM Tris-HCl, 0.1 M NaCl, listed as arenicin-2). Also, the “interaction with POPC vesicles/liposomes” value in series [9] is recorded as “does not interact”. In [10], the relative hydrophobicity entry is “most hydrophobic among the studied peptides”. In addition, the LPN solution turbidity entry in the series with LPNs [11] (equimolar concentrations (Ar2/LPN = 1 : 1) and higher) is given as “opaque”; in the series on LPNs [11] (small peptide concentrations added), “strongly opalescent”. Further, in [12] (at high concentrations, ref [24]), the bilayer micellization result is recorded as “probably causes bilayer micellization”. Besides, in [12] (ref [18]), the “interaction with membranes containing negatively charged lipids” value is “interacts selectively with membranes containing negatively charged lipid molecules and creates in them oligomeric pores”.

These data come from article PMC4115230, “Lipid–Protein Nanodiscs Offer New Perspectives for Structural and Functional Studies of Water-Soluble Membrane-Active Peptides” (Acta Naturae, 2014).
